Data published in article PMC10730852 (Communications Biology, 2023).
Where “and” joins values, the source holds several entries; their conditions need not be identical. Equal entries are not always repeated. Where two headings read alike, the source gives them in different places.

Key:
[1] = target: T1, Cph001 (Streptosporangium roseum, UniProt D2B3F1); test: Isothermal titration calorimetry (ITC) analysis of Cph001; format: binding
T1 sequence (D2B3F1 1-286): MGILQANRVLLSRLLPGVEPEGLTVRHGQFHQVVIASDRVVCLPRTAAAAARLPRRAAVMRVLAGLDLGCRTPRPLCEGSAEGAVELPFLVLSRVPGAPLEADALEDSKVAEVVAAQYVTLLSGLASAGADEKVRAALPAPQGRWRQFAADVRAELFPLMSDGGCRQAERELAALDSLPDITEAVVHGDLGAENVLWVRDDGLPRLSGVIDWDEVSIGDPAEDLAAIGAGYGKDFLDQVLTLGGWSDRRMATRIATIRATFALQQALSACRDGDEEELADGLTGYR
Source text: The integrated heat areas constitute a differential binding curve that was fitted with a standard single-site binding model by Origin 7.

[2] = test system: Cph; test: Coupled enzyme assay and kinetics of Cph; format: biochemical, Saccharothrix mutabilis subsp. capreolus; conditions: for absorbance at 340 nm, Average of triplicate: substrate + ATP
Experimental: (§1) The phosphorylation reaction was measured by a coupled enzyme assay as following. […] The reactions were mixed well in a final volume of 200 μL in 96-well plates. The Cph001 activity was assayed by determining the oxidation of NADH at 340 nm. The reaction buffer and enzyme concentration of the Cph reaction was followed by previous study. The 340 nm absorbance changes were detected at 30 °C for every 1 min at a time in 15 min on an EPOCH Microplate Reader (BioTek). All reactions were carried out in triplicate.

[3] = test system: Cph001; test: Coupled enzyme assay and Michaelis-Menten kinetics of Cph001; format: biochemical, Streptosporangium roseum; conditions: for initial velocity, Figure 3c ii, Triplicate: 2 mM GTP; for initial velocity, Figure 3c i, Triplicate: 2 mM ATP; for absorbance at 340 nm, Average of triplicate: 2 mM substrate + ATP
Experimental: as §1
The initial velocity data were plotted against substrate concentrations and fit the Michaelis-Menten equation. The Km and Vmax values were calculated based on the Michaelis-Menten equation. GraphPad Prism was used for statistical data analysis. All reactions were carried out in triplicate.

N=C1NCCC([C@@H]2NC(=O)/C(=C/NC(N)=O)NC(=O)[C@H](CNC(=O)C[C@@H](N)CCCN)NC(=O)[C@H](CO)NC(=O)[C@@H](N)CNC2=O)N1 (stereo in doubt) [CMN IIA]
Kd [1]: 1.24 ± 0.08 µM
phosphorylation by Cph in couple enzyme assay ([2]; CMN IIA and ATP, absorbance at 340 nm): decrease in absorbance at 340 nm
absorbance at 340 nm, Average of triplicate ([2]; time 00:00:00): 1.495
absorbance at 340 nm, Average of triplicate ([2]; time 00:01:00): 1.379
absorbance at 340 nm, Average of triplicate ([2]; time 00:02:00): 1.219
absorbance at 340 nm, Average of triplicate ([2]; time 00:03:00): 1.045
absorbance at 340 nm, Average of triplicate ([2]; time 00:04:00): 0.85
absorbance at 340 nm, Average of triplicate ([2]; time 00:05:00): 0.6453
absorbance at 340 nm, Average of triplicate ([2]; time 00:06:00): 0.4483
absorbance at 340 nm, Average of triplicate ([2]; time 00:07:00): 0.303
absorbance at 340 nm, Average of triplicate ([2]; time 00:08:00): 0.2213
absorbance at 340 nm, Average of triplicate ([2]; time 00:09:00): 0.1687
absorbance at 340 nm, Average of triplicate ([2]; time 00:10:00): 0.136
absorbance at 340 nm, Average of triplicate ([2]; time 00:11:00): 0.1227
absorbance at 340 nm, Average of triplicate ([2]; time 00:12:00): 0.1173
absorbance at 340 nm, Average of triplicate ([2]; time 00:13:00): 0.1173
absorbance at 340 nm, Average of triplicate ([2]; time 00:14:00): 0.1173
absorbance at 340 nm, Average of triplicate ([2]; time 00:15:00): 0.1177
initial velocity, Figure 3c ii, Triplicate ([3]; 0.4 mM CMN IIA): 5.814e-5 and 4.992e-5 and 4.228e-5
initial velocity, Figure 3c i, Triplicate ([3]; 0.5 mM CMN IIA): 0.0001245 and 0.0001897 and 0.0001595
initial velocity, Figure 3c ii, Triplicate ([3]; 0.5 mM CMN IIA): 6.636e-5 and 7.341e-5 and 7.765e-5
initial velocity, Figure 3c i, Triplicate ([3]; 0.7 mM CMN IIA): 0.0002053 and 0.000222 and 0.0002263
initial velocity, Figure 3c ii, Triplicate ([3]; 0.7 mM CMN IIA): 9.514e-5 and 7.693e-5 and 6.952e-5
initial velocity, Figure 3c i, Triplicate ([3]; 1 mM CMN IIA): 0.0002288 and 0.0002649 and 0.0003551
initial velocity, Figure 3c ii, Triplicate ([3]; 1 mM CMN IIA): 0.0001233 and 0.000121 and 0.0001065
initial velocity, Figure 3c i, Triplicate ([3]; 2 mM CMN IIA): 0.0003304 and 0.0004291 and 0.0004233
initial velocity, Figure 3c ii, Triplicate ([3]; 2 mM CMN IIA): 0.0002014 and 0.0002003 and 0.0001825
phosphorylation by Cph001 in couple enzyme assay ([3]; 2 mM antibiotic substrate, ATP as phosphate donor, absorbance at 340 nm): decrease in absorbance at 340 nm
initial velocity, Figure 3c i, Triplicate ([3]; 4 mM CMN IIA): 0.0003294 and 0.0004402 and 0.000432
initial velocity, Figure 3c ii, Triplicate ([3]; 4 mM CMN IIA): 0.0001744 and 0.0002267 and 0.0002057
initial velocity, Figure 3c i, Triplicate ([3]; 6 mM CMN IIA): 0.0003263 and 0.0004514 and 0.0003777
initial velocity, Figure 3c ii, Triplicate ([3]; 6 mM CMN IIA): 0.0002402 and 0.000232 and 0.000183
Km ([3]; ATP as phosphate donor (2 mM), pseudo-first-order conditions, mean ± SEM, n = 3, read-out: apparent Michaelis constant (Km) of CMN IIA): 880 ± 200 µM
Km ([3]; ATP series, first manuscript version as quoted by Reviewer #1, read-out: measured Km of CMN IIA): 876 µM
Km ([3]; GTP series, first manuscript version as quoted by Reviewer #1, read-out: measured Km of CMN IIA): 1400 µM
Km ([3]; saturating GTP as phosphate donor (2 mM), mean ± SEM, n = 3, read-out: apparent Km of CMN IIA): 1400 ± 240 µM
absorbance at 340 nm, Average of triplicate ([3]; time 00:00:00): 1.495
absorbance at 340 nm, Average of triplicate ([3]; time 00:01:00): 1.277
absorbance at 340 nm, Average of triplicate ([3]; time 00:02:00): 0.9337
absorbance at 340 nm, Average of triplicate ([3]; time 00:03:00): 0.6673
absorbance at 340 nm, Average of triplicate ([3]; time 00:04:00): 0.5687
absorbance at 340 nm, Average of triplicate ([3]; time 00:05:00): 0.52
absorbance at 340 nm, Average of triplicate ([3]; time 00:06:00): 0.3975
absorbance at 340 nm, Average of triplicate ([3]; time 00:07:00): 0.2841
absorbance at 340 nm, Average of triplicate ([3]; time 00:08:00): 0.2044
absorbance at 340 nm, Average of triplicate ([3]; time 00:09:00): 0.1613
absorbance at 340 nm, Average of triplicate ([3]; time 00:10:00): 0.1364
absorbance at 340 nm, Average of triplicate ([3]; time 00:11:00): 0.1231
absorbance at 340 nm, Average of triplicate ([3]; time 00:12:00): 0.1177
absorbance at 340 nm, Average of triplicate ([3]; time 00:13:00): 0.1173
absorbance at 340 nm, Average of triplicate ([3]; time 00:14:00): 0.1173
absorbance at 340 nm, Average of triplicate ([3]; time 00:15:00): 0.1177
